Counter-ions that a name gives are not always drawn.
Tests used:
Conditions in all cases: exposure time: 15 min to 3 h acute
[1] = tested on: Dugesia japonica; assay: crawl-out incidence (% planarians); higher = higher incidence or increase relative to vehicle control
[2] = tested on: Dugesia japonica; assay: speed in dark vs vehicle (% change vs vehicle); higher = higher incidence or increase relative to vehicle control
Summary of the method: (§1)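 Values are median percent changes in crawling speed of intact, fasted Dugesia japonica, measured in the dark or during blue light by automated tracking and normalised per worm to the plate's vehicle median. Single worms in 200 μL per well of 48-well plates were tested 15 min to 3 h after exposure, with 0.5% DMSO or water as vehicle, and worms that crawled out were excluded.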

[3] = tested on: Dugesia japonica; assay: C-shape incidence (% planarians (vehicle-normalised)); higher = higher incidence or increase relative to vehicle control
Summary of the method: (§2)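 Values are the incidence of each body shape or of any abnormal shape, ×100, relative to in-plate vehicle controls, and negatives are set to 0. Fasted D. japonica planarians (5–7 days), one per 200 μL well in sealed 48-well plates, were scored blind by hand within 15 minutes–3 hours of exposure to at least 5 concentrations; worms that crawled out were excluded.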

[4] = tested on: Dugesia japonica; assay: corkscrew incidence (% planarians (vehicle-normalised)); higher = higher incidence or increase relative to vehicle control
Summary of the method: as §2

[5] = tested on: Dugesia japonica; assay: stickiness incidence (% planarians (vehicle-normalised)); higher = higher incidence or increase relative to vehicle control
Summary of the method: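 Worms that crawled out of their wells were excluded from this binary stickiness endpoint, scored in fasted Dugesia japonica planarians and normalised to vehicle incidence on the same plate. Each planarian was kept alone in a sealed 48-well plate well in 200 μL of solution, with 0.5% DMSO or water as vehicle, and tested 15 min–3 h after exposure to half- or quarter-log concentration series. Technical triplicates were pooled (n = 24), negative values became 0, and values were multiplied by 100.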

[6] = tested on: Dugesia japonica; assay: hyperkinesis incidence (% planarians (vehicle-normalised)); higher = higher incidence or increase relative to vehicle control
Summary of the method: as §2

[7] = tested on: Dugesia japonica; assay: speed first 30 s blue light vs vehicle (% change vs vehicle); higher = higher incidence or increase relative to vehicle control
Summary of the method: as §1

[8] = tested on: Dugesia japonica; assay: speed second 30 s blue light vs vehicle (% change vs vehicle); higher = higher incidence or increase relative to vehicle control
Summary of the method: as §1

[9] = tested on: Dugesia japonica; assay: pharynx extrusion incidence (% planarians (vehicle-normalised)); higher = higher incidence or increase relative to vehicle control
Summary of the method: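 Pharynx extrusion was scored manually and blind as a body-shape category, and its incidence was normalised to in-plate vehicle controls. Individual intact, fasted Dugesia japonica were kept in 200 μL per well of 48-well plates and tested 15 min to 3 h after exposure in water or 0.5% DMSO vehicle. Negatives were set to 0, and worms that crawled out were excluded.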

[10] = tested on: Dugesia japonica; assay: loss of phototaxis incidence (% planarians (vehicle-normalised)); higher = higher incidence or increase relative to vehicle control
Summary of the method: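 The endpoint was loss of phototaxis, scored yes/no by automated object tracking in intact, fasted Dugesia japonica kept singly in wells. Plates had 48 wells holding 200 μL, and worms were tested 15 min to 3 h after exposure in 0.5% DMSO or water vehicle. The incidence rate ×100 was normalised to in-plate vehicle controls, with negatives set to 0 and escaped worms excluded.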

[11] = tested on: Dugesia japonica; assay: total locomotor bursts minus vehicle (bursts difference vs vehicle); higher = higher incidence or increase relative to vehicle control
Summary of the method: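 The value is the median normalised response for total locomotor bursts, an unstimulated behaviour measured by image-based object tracking in fasted Dugesia japonica planarians. Animals sat singly in the wells of a sealed 48-well plate in 200 μL solution and were tested 15 min–3 h after exposure to half- or quarter-log concentration series in 0.5% DMSO or water. Each planarian's value was corrected by subtracting the plate vehicle-control median, with no ×100 scaling, and crawled-out worms were left out.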

[12] = tested on: Dugesia japonica; assay: noxious heat displacement strength vs vehicle (% change vs vehicle); higher = higher incidence or increase relative to vehicle control
Summary of the method: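 With automated object tracking, the scrunching assay gave displacement strength under noxious heat for intact, fasted Dugesia japonica, each normalised to its plate's vehicle median and summarised as the median percent change. Worms sat singly in 200 μL in 48-well plates and were tested 15 min to 3 h after exposure in 0.5% DMSO or water vehicle; those that crawled out were excluded.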

[13] = tested on: Dugesia japonica; assay: contracted body shape incidence (% planarians (vehicle-normalised)); higher = higher incidence or increase relative to vehicle control
Summary of the method: as §2

[14] = tested on: Dugesia japonica; assay: anxiety (time in outer well region) vs vehicle (% change vs vehicle); higher = higher incidence or increase relative to vehicle control
Summary of the method: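 Time in the outer portion of each well was tracked by software for individual planarians, excluding any that crawled out, and the median normalized response is given. Worms (D. japonica, fasted 5–7 days) sat one per well in 200 μL in sealed 48-well plates, were exposed to at least 5 concentrations with n = 24 per concentration in technical triplicates, and were screened within 15 minutes–3 hours. Normalization divided each response by, or reduced it by, the plate vehicle median and multiplied the result by 100.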

[15] = tested on: Dugesia japonica; assay: any abnormal body shape incidence (% planarians (vehicle-normalised)); higher = higher incidence or increase relative to vehicle control
Summary of the method: as §2

[16] = tested on: Dugesia japonica; assay: resting fraction in dark vs vehicle (difference in fraction x100 vs vehicle); higher = higher incidence or increase relative to vehicle control
Summary of the method: (§3)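 Values give the median resting fraction in the dark or under blue light, obtained by automated tracking with the plate's vehicle median subtracted from each worm and the difference multiplied by 100. Intact, fasted Dugesia japonica were placed one per well of a 48-well plate in 200 μL, eight per concentration per plate in technical triplicate. Tracking ran 15 min to 3 h after exposure in 0.5% DMSO or water vehicle, and any worm that crawled out was excluded.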

[17] = tested on: Dugesia japonica; assay: loss of heat-induced scrunching incidence (% planarians (vehicle-normalised)); higher = higher incidence or increase relative to vehicle control
Summary of the method: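 The incidence of worms lacking a scrunching response to a noxious heat stimulus, normalised to vehicle controls within each plate, is the value listed. It appears ×100 with negatives set to 0. Single D. japonica planarians in 200 μL per well of 48-well plates were exposed to at least 5 concentrations (n = 24 per concentration) and tested within 15 minutes–3 hours, excluding worms that crawled out.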

[18] = tested on: Dugesia japonica; assay: resting fraction in blue light vs vehicle (difference in fraction x100 vs vehicle); higher = higher incidence or increase relative to vehicle control
Summary of the method: as §3

Row | Compound | crawl-out incidence [1] | speed in dark [2] | C-shape incidence [3] | corkscrew incidence [4] | stickiness incidence [5] | hyperkinesis incidence [6] | speed first 30 s blue light [7] | speed second 30 s blue light [8] | pharynx extrusion incidence [9] | loss of phototaxis incidence [10] | total locomotor bursts minus vehicle [11] | noxious heat displacement strength [12] | contracted body shape incidence [13] | anxiety [14] | any abnormal body shape incidence [15] | resting fraction in dark [16] | loss of heat-induced scrunching incidence [17] | resting fraction in blue light [18]
1 | O=C(O)C(=O)O [oxalic acid] (1000 µM) | 0 | -53.2 | 41.7 | 0 | ≤ 0 | 0 | -88.1 | -90.4 | 0 | 54.2 | 4 | -57 | 50 | -19.2 | 62.5 | 60.5 | 83.3 | 63.9
2 | CN1CCN(CCCN2c3ccccc3Sc3ccc(Cl)cc32)CC1 [prochloroperazine] (3.16 µM) | 4.17 | -37.4 | 0 | 0 | 4.17 | 12.5 | -37.9 | -55.6 | 0 | 17.4 | 14.8 | -46.2 | 4.17 | 19 | 16.7 | 15.2 | 45.8 | -3.15
3 | CN1CCN(CCCN2c3ccccc3Sc3ccc(Cl)cc32)CC1 [prochloroperazine] (10 µM) | 25 | -74.9 | 12.5 | 0 | 4.17 | 25 | -81.4 | -85.8 | 0 | 50 | 12.5 | -55.5 | 4.17 | 21.9 | 37.5 | 38.3 | 66.7 | 52.9
4 | CN1CCN(CCCN2c3ccccc3Sc3ccc(Cl)cc32)CC1 [prochloroperazine] (31.6 µM) | 20.8 | -65.5 | 34.8 | 4.35 | ≤ 0 | 26.1 | -89.8 | -83.6 | 0 | 63.2 | -3 | -47.9 | 21.7 | 24 | 73.9 | 60.9 | 65.2 | 75.3
5 | CN1CCN(CCCN2c3ccccc3Sc3ccc(Cl)cc32)CC1 [prochloroperazine] (100 µM) | 29.2 | -72.3 | 35 | 5 | ≤ 0 | 0 | -91.1 | -92.9 | 0 | 76.5 | 0.25 | -41.6 | 75 | -100 | 70 | 77 | 75 | 82.2
6 | CNCC[C@H](Oc1cccc2ccccc12)c1cccs1 [s-duloxetine] (3.16 µM) | 0 | 70.8 | 0 | 0 | 16.7 | 0 | 167 | 68.4 | 0 | ≤ 0 | -2.5 | -40.2 | 0 | 12 | 0 | -19 | 25 | -12.5
7 | CNCC[C@H](Oc1cccc2ccccc12)c1cccs1 [s-duloxetine] (10 µM) | 0 | 124 | 0 | 0 | ≤ 0 | 75 | 142 | 34.6 | 0 | 50 | -13 | -38 | 0 | -1.76 | 75 | -32.6 | 8.33 | -12.1
8 | CNCC[C@H](Oc1cccc2ccccc12)c1cccs1 [s-duloxetine] (31.6 µM) | 4.17 | -18.7 | 34.8 | 0 | ≤ 0 | 39.1 | -45.9 | -62.7 | 26.1 | 47.8 | 61 | -61.5 | 4.35 | -51.2 | 73.9 | -4.51 | 65.2 | 7.14
9 | CNCC[C@H](Oc1cccc2ccccc12)c1cccs1 [s-duloxetine] (100 µM) | 4.17 | -50.6 | 13 | 0 | ≤ 0 | 0 | -84 | -87.5 | 65.2 | 56.5 | -4.5 | -66.8 | 34.8 | -57.1 | 82.6 | 55.5 | 73.9 | 72.3
10 | CN[C@H]1CC[C@@H](c2ccc(Cl)c(Cl)c2)c2ccccc21 [sertraline hydrochloride] (3.16 µM) | 8.33 | -20.1 | 0 | 0 | 4.55 | 4.55 | -25.9 | -31.9 | 0 | 18.2 | 8 | -5.25 | 0 | 15.3 | 4.55 | 1.05 | ≤ 0 | 4.62
11 | CN[C@H]1CC[C@@H](c2ccc(Cl)c(Cl)c2)c2ccccc21 [sertraline hydrochloride] (10 µM) | 0 | 24.4 | 0 | 0 | 4.17 | 0 | -16.8 | 0.96 | 0 | ≤ 0 | -9.5 | 27 | 0 | 1.96 | 0 | -1.57 | 33.3 | 0.73
12 | CN[C@H]1CC[C@@H](c2ccc(Cl)c(Cl)c2)c2ccccc21 [sertraline hydrochloride] (31.6 µM) | 4.17 | -31.9 | 0 | 0 | 4.35 | 4.35 | -36 | -42.3 | 0 | ≤ 0 | 6.5 | 3.64 | 0 | 1.57 | 4.35 | -19.3 | 47.8 | 4.64
13 | CN[C@H]1CC[C@@H](c2ccc(Cl)c(Cl)c2)c2ccccc21 [sertraline hydrochloride] (100 µM) | 4.17 | 7.78 | 0 | 0 | ≤ 0 | 91.3 | -33.7 | -33.9 | 0 | 4.35 | -5.25 | -27.1 | 0 | 17.1 | 91.3 | 4.98 | 21.7 | 3.91
14 | [Cl-].[Na+] [sodium chloride] (3470 µM) | 4.17 | -7.38 | 0 | 0 | ≤ 0 | 0 | 18.8 | -2.5 | 0 | ≤ 0 | 0.5 | -5.24 | 0 | -4.03 | 0 | 2.94 | 12.5 | -8.67
15 | CCCCNc1c(C(=O)OCC)c(C)nc2c1cnn2CC [tracazolate hydrochloride] (3.16 µM) | 0 | -4.2 | 0 | 0 | ≤ 0 | 12.5 | -7.17 | -5.52 | 0 | 8.33 | 0.5 | -6.19 | 0 | -16.4 | 8.33 | 0 | ≤ 0 | 0.22
16 | CCCCNc1c(C(=O)OCC)c(C)nc2c1cnn2CC [tracazolate hydrochloride] (10 µM) | 0 | -27.1 | 0 | 0 | ≤ 0 | 0 | -24.7 | -17.8 | 0 | ≤ 0 | 4.5 | -3.78 | 0 | -12.6 | 0 | 1.52 | 16.7 | 0
17 | CCCCNc1c(C(=O)OCC)c(C)nc2c1cnn2CC [tracazolate hydrochloride] (31.6 µM) | 0 | -78.9 | 79.2 | 8.33 | ≤ 0 | 12.5 | -90.9 | -87.7 | 0 | 33.3 | 55.8 | -31.1 | 4.17 | -51.8 | 83.3 | 39.1 | 41.7 | 51
